{
  "source": "patent US6391849B1",
  "about": "“Method and pharmaceutical composition for disrupting lactation in a mammary gland and for treating and preventing mastitis” (Agricultural Research Organization, The Volcani Center, priority 1999, dated 2002)",
  "origin": "cited, not measured here",
  "tested_on": "mammary gland",
  "conditions": "EGTA introduced into the mammary gland",
  "data": [
    {"smiles": "O=C(O)CN(CCOCCOCCN(CC(=O)O)CC(=O)O)CC(=O)O", "note": "[EGTA]", "values": [
      {"measurement": "TJ integrity", "value": "transient loss"},
      {"measurement": "milk yield", "value": "transient reduction"}
    ]}
  ]
}
